Values joined by “and” are separate entries in the source; they are usually repeats but may differ in a detail not shown here. Equal entries are not always repeated. Where two headings read alike, the source gives them in different places. Where a SMILES comes first, the peptide text is derived from it. [ ]: non-standard residue; d: D form. The star is where a group is joined. X2 = CO[C@@H]1NC(=O)CC[C@@H]1N*; X3 = O=C1CC[C@H](N*)[C@@H](O)N1; X1 = O=C1CC[C@H](N*)[C@H](O)N1; Valol = CC(C)[C@@H](CO)N*; Aib = CC(C)(N)C(=O)O
Legend:
[1] = system: SK-OV-3 (ovarian cancer) cells; experiment: MTT cell viability assay, SK-OV-3 cells; conditions: for IC50: read-out: IC50 against SK-OV-3 (Ovarian Cancer)
Description: (§1) HCT-8 (colorectal carcinoma), and SK-OV-3 (ovarian cancer) cell lines were obtained from the American Type Culture Collection (ATCC; Manassas, VA, USA). The cells were cultured in RPMI-1640 medium (Cytiva, Marlborough, MA, USA) supplemented with 10% fetal bovine serum (FBS), 100 U/mL penicillin, and streptomycin, and incubated in a humidified atmosphere with 5% CO2 at 37 °C [23].
(§2) Cell viability was determined using the 3-(4,5-dimethylthiazol-2-yl)-2,5-diphenyltetrazolium bromide (MTT) colorimetric assay (Sigma Chemical Co., St. Louis, MO). Cells were seeded in 96-well plates and incubated at 37 °C for 24 h. Subsequently, cells were treated with isolated compounds at concentrations of 2, 20, and 100 μM for an additional 24 h. After treatment, 25 μL of MTT solution (5 mg/mL; Thermo Fisher Scientific, Waltham, MA, USA) was added to each well and incubated for 3 h. The resulting formazan crystals were dissolved in 100 μL of dimethyl sulfoxide, and the absorbance was measured at 550 nm using an ELx808 microplate reader (BioTek Instruments Inc., Winooski, VT, USA).

[2] = system: HCT-8 (colon cancer) cells; experiment: MTT cell viability assay, HCT-8 cells; conditions: for IC50: read-out: IC50 against HCT-8 (Colon Cancer)
Description: as §1, §2

[3] = MTT colorimetric assay, 96-well plates, treated at 2, 20, and 100 μM for 24 h, absorbance at 550 nm, mean ± standard deviation from triplicate experiments

SMILES	IC50 [1, 3]	IC50 [2, 3]	IC50 ([1]; Homo sapiens, SK-OV-3, 24 h) [µM]	IC50 ([2]; Homo sapiens, HCT-8, 24 h) [µM]	cytotoxicity against SK-OV-3 cells, in words [1]	cytotoxicity against HCT-8 cells, in words [2]
CC[C@H](C)[C@H](NC(=O)C(C)(C)NC(=O)[C@@H](NC(=O)[C@@H]1CCCN1C(=O)C(C)(C)NC(=O)[C@H](CC(C)C)NC(=O)[C@H](CO)NC(=O)C(C)(C)NC(=O)C(C)(C)NC(=O)C(C)(C)NC(=O)[C@H](CCC(N)=O)NC(=O)C(C)(C)NC(=O)C(C)(C)NC(=O)[C@H](C)NC(=O)CNC(=O)[C@H](Cc1c[nH]c2ccccc12)NC(C)=O)C(C)C)C(=O)N[C@H]1CCC(=O)N[C@@H]1O [Compound 8, bukhansantaibol H] (Ac-WGA[Aib][Aib]Q[Aib][Aib][Aib]SL[Aib]PV[Aib]I-X3)	> 50 µM	> 50 µM	–	–	–	–
COc1cc([C@@H]2c3cc4c(cc3[C@@H](O[C@@H]3O[C@@H]5CO[C@@H](C)O[C@H]5[C@H](O)[C@H]3O)[C@H]3COC(=O)[C@H]23)OCO4)cc(OC)c1O [Etoposide, reference compound]	–	–	37.3 ± 1.8	33.7 ± 1.5	–	–
CC(=O)N[C@@H](Cc1c[nH]c2ccccc12)C(=O)NCC(=O)N[C@@H](C)C(=O)NC(C)(C)C(=O)NC(C)(C)C(=O)N[C@@H](CCC(N)=O)C(=O)NC(C)(C)C(=O)NC(C)(C)C(=O)NC(C)(C)C(=O)N[C@@H](CO)C(=O)N[C@@H](CC(C)C)C(=O)NC(C)(C)C(=O)N1CCC[C@H]1C(=O)N[C@H](C(=O)NC(C)(C)C(=O)N[C@@H](CC(C)C)C(=O)N[C@@H](CCC(N)=O)C(=O)N[C@@H](CCC(N)=O)C(=O)N[C@H](CO)C(C)C)C(C)C [Compound 2, bukhansantaibol B] (Ac-WGA[Aib][Aib]Q[Aib][Aib][Aib]SL[Aib]PV[Aib]LQQ-Valol)	13.8 ± 1 µM	11.7 ± 0.8 µM	–	–	–	–
CC[C@H](C)[C@H](NC(=O)C(C)(C)NC(C)=O)C(=O)NC(C)(C)C(=O)N[C@@H](Cc1ccc(O)cc1)C(=O)NC(C)(C)C(=O)N[C@H](C(=O)NC(C)(C)C(=O)N[C@@H](C)C(=O)NC(C)(C)C(=O)NC(C)(C)C=O)[C@@H](C)CC [Compound 12, bukhansantaibal B] (Ac-[Aib]I[Aib]Y[Aib]I[Aib]A[Aib][Aib]-aldehyde)	> 50 µM	> 50 µM	–	–	inactivity	inactivity
CC[C@H](C)[C@H](NC(=O)C(C)(C)NC(=O)[C@@H](NC(=O)[C@@H]1CCCN1C(=O)C(C)(C)NC(=O)[C@H](CC(C)C)NC(=O)[C@H](CO)NC(=O)C(C)(C)NC(=O)C(C)(C)NC(=O)C(C)(C)NC(=O)[C@H](CCC(N)=O)NC(=O)C(C)(C)NC(=O)C(C)(C)NC(=O)[C@H](C)NC(=O)CNC(=O)[C@H](Cc1c[nH]c2ccccc12)NC(C)=O)C(C)C)C(=O)N[C@H]1CCC(=O)N[C@H]1OC [Compound 9, bukhansantaibol I] (Ac-WGA[Aib][Aib]Q[Aib][Aib][Aib]SL[Aib]PV[Aib]I-X2)	> 50 µM	> 50 µM	–	–	marked loss of cytotoxicity	marked loss of cytotoxicity
CC[C@H](C)[C@H](NC(=O)C(C)(C)NC(=O)[C@@H](NC(=O)[C@@H]1CCCN1C(=O)C(C)(C)NC(=O)[C@H](CC(C)C)NC(=O)[C@H](CO)NC(=O)C(C)(C)NC(=O)C(C)(C)NC(=O)C(C)(C)NC(=O)[C@H](CCC(N)=O)NC(=O)C(C)(C)NC(=O)C(C)(C)NC(=O)[C@H](C)NC(=O)CNC(=O)[C@H](Cc1ccccc1)NC(C)=O)C(C)C)C(=O)N[C@@H](CCC(N)=O)C(=O)N[C@@H](CCC(N)=O)C(=O)N[C@H](CO)C(C)C [Compound 3, bukhansantaibol C] (Ac-FGA[Aib][Aib]Q[Aib][Aib][Aib]SL[Aib]PV[Aib]IQQ-Valol)	19.6 ± 0.1 µM	18.5 ± 0.6 µM	–	–	–	–
CC[C@H](C)[C@H](NC(=O)C(C)(C)NC(C)=O)C(=O)NC(C)(C)C(=O)N[C@@H](Cc1ccc(O)cc1)C(=O)NC(C)(C)C(=O)N[C@@H](CC(C)C)C(=O)NC(C)(C)C(=O)N[C@@H](C)C(=O)NC(C)(C)C(=O)NC(C)(C)C=O [Compound 11, bukhansantaibal A] (Ac-[Aib]I[Aib]Y[Aib]L[Aib]A[Aib][Aib]-aldehyde)	> 50 µM	> 50 µM	–	–	inactivity	inactivity
CC[C@H](C)[C@H](NC(=O)C(C)(C)NC(=O)[C@@H](NC(=O)[C@@H]1CCCN1C(=O)C(C)(C)NC(=O)[C@H](CC(C)C)NC(=O)[C@H](CO)NC(=O)C(C)(C)NC(=O)C(C)(C)NC(=O)C(C)(C)NC(=O)[C@H](CCC(N)=O)NC(=O)C(C)(C)NC(=O)C(C)(C)NC(=O)[C@H](C)NC(=O)CNC(=O)[C@H](Cc1c[nH]c2ccccc12)NC(C)=O)C(C)C)C(=O)N[C@H]1CCC(=O)N[C@H]1O [Compound 7, bukhansantaibol G] (Ac-WGA[Aib][Aib]Q[Aib][Aib][Aib]SL[Aib]PV[Aib]I-X1)	> 50 µM	> 50 µM	–	–	–	–
CC[C@H](C)[C@H](NC(=O)C(C)(C)NC(=O)[C@@H](NC(=O)[C@@H]1CCCN1C(=O)C(C)(C)NC(=O)[C@H](CC(C)C)NC(=O)[C@H](CO)NC(=O)C(C)(C)NC(=O)C(C)(C)NC(=O)C(C)(C)NC(=O)[C@H](CCC(N)=O)NC(=O)C(C)(C)NC(=O)C(C)(C)NC(=O)[C@H](C)NC(=O)CNC(=O)[C@H](Cc1ccccc1)NC(C)=O)C(C)C)C(=O)N[C@@H](CCC(=O)O)C(=O)N[C@@H](CCC(N)=O)C(=O)N[C@H](CO)C(C)C [Compound 6, bukhansantaibol F] (Ac-FGA[Aib][Aib]Q[Aib][Aib][Aib]SL[Aib]PV[Aib]IEQ-Valol)	> 50 µM	> 50 µM	–	–	–	–
CC[C@H](C)[C@H](NC(=O)C(C)(C)NC(=O)[C@@H](NC(=O)[C@@H]1CCCN1C(=O)C(C)(C)NC(=O)[C@H](CC(C)C)NC(=O)[C@H](C)NC(=O)C(C)(C)NC(=O)C(C)(C)NC(=O)C(C)(C)NC(=O)[C@H](CCC(N)=O)NC(=O)C(C)(C)NC(=O)C(C)(C)NC(=O)[C@H](C)NC(=O)CNC(=O)[C@H](Cc1c[nH]c2ccccc12)NC(C)=O)C(C)C)C(=O)N[C@@H](CCC(N)=O)C(=O)N[C@@H](CCC(N)=O)C(=O)N[C@H](CO)C(C)C [Compound 4, bukhansantaibol D] (Ac-WGA[Aib][Aib]Q[Aib][Aib][Aib]AL[Aib]PV[Aib]IQQ-Valol)	< 10 µM and 5.7 µM	< 10 µM and 7.7 µM	–	–	–	–
CC[C@H](C)[C@H](NC(=O)C(C)(C)NC(=O)[C@@H](NC(=O)[C@@H]1CCCN1C(=O)C(C)(C)NC(=O)[C@H](CC(C)C)NC(=O)[C@H](CO)NC(=O)C(C)(C)NC(=O)C(C)(C)NC(=O)C(C)(C)NC(=O)[C@H](CCC(N)=O)NC(=O)C(C)(C)NC(=O)C(C)(C)NC(=O)[C@H](C)NC(=O)CNC(=O)[C@H](Cc1ccccc1)NC(C)=O)C(C)C)C(=O)N[C@H]1CCC(=O)N[C@H]1OC [Compound 10, bukhansantaibol J] (Ac-FGA[Aib][Aib]Q[Aib][Aib][Aib]SL[Aib]PV[Aib]I-X2)	> 50 µM	> 50 µM	–	–	marked loss of cytotoxicity	marked loss of cytotoxicity
